This is an account of results in patent publication US6319952A, “Compositions and methods for reversibly increasing permeability of biomembranes” (D-Pharm Ltd., priority 1997, dated 2001).

Series [1] deals with blood brain barrier. To be noted: cited from earlier work.
Series [2] deals with blood-brain barrier (BBB). As to the kind of experiment: Effect of branched chain fatty acids on BBB permeability by qualitative Evan's Blue (EB) evaluation in rats. Particulars: intracarotid infusion. In kind it is in vivo, rat (male Sprague-Dawley). As for the experimental part: Evaluation of Effect of Branched Fatty Acids on Blood-brain Barrier Permeability
The experiments were carried out on male Sprague-Dawley rats weighing 250-320 gr. They were anesthetized with Rampun-Imalgen. The right common carotid artery was exposed.
The test compounds were dissolved in 0.1M phosphate buffered physiological saline (pH=7.4) at the following test concentrations: 1.6; 8; 20; 40; 200 and 1000 μg/ml.
The test compound was infused into the right common carotid artery at a rate of 6 ml/min. for 30 s. The control rats were infused with buffer. Evan's Blue (EB) solution at a concentration of […] (2 g Evan's Blue, 0.9 g NaCl in 100 ml water) was injected intravenously 50 minutes prior to the termination of the experiment.
In the case of 45 min experiment, five minutes prior to the infusion of the tested material, 4 ml/kg body wt dose of Evans Blue solution was injected intravenously.
At the end of the experimental time period the animals were perfused with 100 ml of saline solution through the heart and decapitated. The degree of BBB opening, in terms of extravasation of Evan's Blue albumin, was graded on the basis of visual assessment of the degree of staining of the brain ato the method of Rapoport et al. (Rapoport et al., 1980, Amer. J. Physiol. 258, 421-431), and the results are presented in Tables 1 and 2.
The results presented are qualitative with four degrees of Evan's Blue extravasation according to Rapoport et al. Minus signs represents no staining and three plus signs represent maximal staining.

Series [3] concerns blood brain barrier. Particulars: Sztriha and Betz; cited from earlier work.
Another series concerns mice. Description: Acute intravenous toxicity test in mice. In kind it is in vivo. To be noted: i.v.; for dose causing mortality: mice, three days. As for the experimental part: An acute intravenous toxicity test was performed to study the toxicity of the branched fatty acids in mice. The study included mortality and behavioral observations during three days. The rate of mortality is represented in the Table 5. M 3/14 caused mortality at a dose of 175 mg/kg; M3/12 at a dose of 75 mg/kg and M 3/10 at a dose of 100 mg/kg. Death was observed ten minutes after i.v. injection. In sub-lethal doses no significant behavior changes were observed.

A further series has as its system membrane. Particulars: Perlman and Goldstein; cited from earlier work.

`OC[C@@H](O)[C@@H](O)[C@H](O)[C@H](O)CO` [Mannitol]: in the series with blood brain barrier [1] (osmotic modification, chemotherapy after barrier opening), the “drug entry after barrier opening” value was “enhanced drug entry to both brain-tumor and brain”. For the same molecule, the “complications of osmotic BBB modification” value in the series with blood brain barrier [1] (osmotic modification) was “clinical manifestation of stroke, seizures, immunological reaction and ocular toxicity”. Besides, in the series with blood brain barrier [1] (osmotic treatment, Greig), the “duration of BBB opening” value was “very short period”.

Regarding `CCCCCCCC/C=C\CCCCCCCC(=O)O` [oleic acid, reference compound], the “Visual EB” value in series [2] (125 μM, 180 min) was “-”. Besides, the “opening of the BBB” value in the series with blood brain barrier [3] is “reversibly open the BBB”.

Take `CCCCCCCCCCC(CCC)C(=O)O` (stereo not drawn) [M 3/10, 2-propyldodecanoic acid]: the “Visual EB” value in series [2] (625 μM, 45 min) is listed as “++”. The Mortality in the series with mice (50 mg/kg, 10 mg/ml) was 0/3; in the series with mice (100 mg/kg, 10 mg/ml), 3/3. Also, in the series on mice, the dose causing mortality stood at 100 mg/kg.

As to `CCCC(CCC)C(=O)O` [valproic acid], the membrane disordering result with membrane is given as “membrane disordering potency”.

As to `CCCCCCCCCCCCC(CCC)C(=O)O` (stereo not drawn) [M 3/12, 2-propyltetradecanoic acid], in series [2] (125 μM, 180 min), the “Visual EB” value was “++”. The Mortality is 0/3 in the series with mice (50 mg/kg, 2.5 mg/ml) and 3/3 in the series on mice (75 mg/kg, 2.5 mg/ml). The dose causing mortality in the series with mice was determined as 75 mg/kg.

Take `CCCCCCCCCCC(CCCCCCCCCC)C(=O)O` [M 10/10, 2-decanyldodecanoic acid]: in series [2] (625 μM, 45 min), the “Visual EB” value is “++”.
